The structures appear in SMILES notation. pIC50: −log10 of the molar value.

The assay has as its system HL-60. The experiment in a line: Cytotoxicity against human HL60 cells assessed as inhibition of [3H]thymidine incorporation. The assay is classed as functional, cell-based. On the technique in general: Uptake of a labelled nucleoside into DNA is a usual measure of proliferation.
For orientation: pIC50 means −log10 of the IC50, conventionally taken in molar units. `CC1(C)CC[C@]2(C(=O)O[C@@H]3OC[C@H](O)[C@H](O)[C@H]3O)[C@H](O)C[C@]3(C)C(=CC[C@@H]4[C@@]5(C)CC[C@H](O[C@@H]6O[C@H](CO)[C@@H](O)[C@H](O)[C@H]6O)C(C)(C)[C@@H]5CC[C@]43C)[C@@H]2C1` [ASTERLINGULATOSIDE A]: the pIC50 was 4.41.
As for `C[C@@H]1O[C@@H](O[C@H]2[C@H](OC(=O)[C@]34CCC(C)(C)C[C@H]3C3=CC[C@@H]5[C@@]6(C)CC[C@H](O[C@@H]7O[C@H](CO)[C@@H](O)[C@H](O)[C@H]7O)C(C)(C)[C@@H]6CC[C@@]5(C)[C@]3(C)C[C@H]4O)OC[C@H](O)[C@@H]2O)[C@H](O)[C@H](O)[C@H]1O` [ASTERLINGULATOSIDE B], the figure is 4.15; as for `C[C@@H]1O[C@@H](O[C@H]2[C@H](OC(=O)[C@]34CCC(C)(C)C[C@H]3C3=CC[C@@H]5[C@@]6(C)CC[C@H](O[C@@H]7O[C@H](CO)[C@@H](O)[C@H](O)[C@H]7O)C(C)(C)[C@@H]6CC[C@@]5(C)[C@]3(C)C[C@H]4O)OC[C@H](O)[C@@H]2O)[C@H](O)[C@H](O)[C@H]1O[C@@H]1OC[C@@H](O)[C@H](O)[C@H]1O` [ASTERLINGULATOSIDE C], 5.06; as for `C[C@@H]1O[C@@H](O[C@H]2[C@H](OC(=O)[C@]34CCC(C)(C)C[C@H]3C3=CC[C@@H]5[C@@]6(C)CC[C@H](O[C@@H]7O[C@H](CO)[C@@H](O)[C@H](O)[C@H]7O)C(C)(C)[C@@H]6CC[C@@]5(C)[C@]3(C)C[C@H]4O)OC[C@H](O)[C@@H]2O)[C@H](O)[C@H](O)[C@H]1O[C@@H]1OC[C@@H](O)[C@H](O[C@@H]2OC[C@@H](O)[C@H](O)[C@H]2O)[C@H]1O` [ASTERLINGULATOSIDE], 5.21.

The values above are taken from ChEMBL document CHEMBL1146437, “Asterlingulatosides C and D, cytotoxic triterpenoid saponins from Aster lingulatus” (J Nat Prod, 1997).
